From patent US4732978A, “Novel substituted naphthyloxymethyl quinoline derivatives as anti-inflammatory and antiallergy agents” (American Home Products Corporation, priority 1986, dated 1988)

What was measured:
[1] = test system: AA-induced mouse ear edema; assay: Arachidonic acid (AA)-induced murine ear edema test, topical; assay type: in vivo, mouse (Swiss Webster female); conditions: for % Change from Control, TOPICAL, AA: AA 1 mg/ear (footnote a), * = <0.05
Source text: (§1) The ability of the compounds of the invention to inhibit the lipoxygenase and/or cyclooxygenase pathways of arachidonic acid is examined in the in vivo arachidonic acid (AA)-/12-O-tetradecanoylphorbol acetate (TPA)-induced murine ear edema test.
(§2) According to this test, Swiss Webster female mice (Buckshire), approximately 8 weeks old, are placed into plastic boxes in groups of six. Eight groups of mice receive AA topically on the right ear, and another 8 groups receive TPA topically on the right ear. AA and TPA are dissolved in acetone at concentrations of 100 mg/mL and 100 μg/mL respectively. The phlogistics are applied to the right ear by the means of an automatic pipet. Volumes of 10 μL are applied to the inner and outer surfaces of the ear. […] The left ear (control) receives acetone delivered in the same manner. Oral and topical dosing regimens are as follows: (1) drugs are given 30 minutes prior to AA treatment, and (2) drugs are given 30 minutes after treatment with TPA.
(§3) Measurements are taken with Oditest calipers, 0-10 mm with 0.01 graduations. The right and left ears are measured after 1 hour AA-induced inflammation and 4 hours after TPA-induced inflammation.
(§4) The difference between right and left ear thickness is calculated and the significance is determined by a one way analysis of variance with Dunnett's comparisons to control (P=0.05). Drug effects are expressed as a percent change from control values: [formula]
(§5) The ED50 values are also given for these compounds where this has been determined.

[2] = test system: synthesis of cyclooxygenase oxidation product PGE2; assay: Inhibition of synthesis of cyclooxygenase product PGE2 (rat polymorphonuclear leukocytes, procedure of Example 17); assay type: cell-based, rat (female Wistar); conditions: Leukocyte; rat PMN
Method: (§6) Peritoneal PMN are obtained from female Wistar rats (150-250 g) that received an i.p. injection of 6% glycogen (10 mL). After 24 hours, rats are killed by CO2 asphyxiation and peritoneal cells are harvested by peritoneal lavage using Ca^++ and Mg^++ free Hanks' balanced salt solution (HBSS). The peritoneal exudate is centrifuged at 400 g for 10 minutes. After centrifugation, the lavaged fluid is removed and the cell pellet is resuspended in HBSS containing Ca^++ and Mg^++ and 10 mM L-cysteine at a concentration of 2×10^7 cells/mL. To 1 mL portions of cell suspension, test drugs or vehicle are added and incubated at 37° C. for 10 minutes. Following this preincubation, the calcium ionophore (10 μM), A23187, is added together with 0.5 μCi [^14 C] arachidonic acid and further incubated for 10 minutes. The reaction is stopped by the addition of ice cold water (3 mL) and acidifying to pH 3.5. Lipoxygenase products are then extracted twice into diethyl ether. The pooled ether extracts are evaporated to dryness under nitrogen and the residue is redissolved in a small volume of methanol and spotted on aluminum backed pre-coated thin layer chromatographic plates. The samples are then co-chromatographed with authentic reference 5-HETE, in the solvent system--hexane:ether:acetic acid (50:50:3). After chromatography, the areas associated with 5-HETE standard are identified by autoradiography, cut out and quantitated by liquid scintillation.
(§7) The procedure of Example 17 is also employed for the determination of the ability of the compounds of the invention to inhibit the synthesis of the arachidonic acid cyclooxygenase oxidation products TxB2 and PGE2.
In this assay, the procedure of Example 17 is carried out as described. […] After chromatography, the areas associated with TxB2 and PGE2 standards are identified by autoradiography, cut out and quantitated by liquid scintillation techniques.
(§8) The results are calculated as in Example 17.

[3] = test system: TPA-induced mouse ear edema; assay: 12-O-tetradecanoylphorbol acetate (TPA)-induced murine ear edema test, topical; assay type: in vivo, mouse (Swiss Webster female); conditions: for % Change from Control, TOPICAL, TPA: TPA 10 μg/ear (footnote b), * = <0.05
Source text: as §1, §2, §3, §4, §5

[4] = test system: synthesis of cyclooxygenase oxidation product TxB2; assay: Inhibition of synthesis of cyclooxygenase product TxB2 (rat polymorphonuclear leukocytes, procedure of Example 17); assay type: cell-based, rat (female Wistar); conditions: Leukocyte, rat PMN; for IC50: TxA2
Method: as §6, §7
In this assay, the procedure of Example 17 is carried out as described. However, in order to determine cyclooxygenase activity, the samples are cochromatographed with authentic reference TxB2 and PGE2 in the solvent system ethyl acetate:formic acid (80:1) and the upper phase of ethyl acetate:isoctane:acetic acid:water (110:50:20:100). After chromatography, the areas associated with TxB2 and PGE2 standards are identified by autoradiography, cut out and quantitated by liquid scintillation techniques.
as §8

[5] = test system: 5-HETE synthesis by rat glycogen-elicited polymorphonuclear leukocytes; assay: Inhibition of 5-HETE synthesis by rat glycogen-elicited polymorphonuclear leukocytes (lipoxygenase); assay type: cell-based, rat (female Wistar); conditions: Leukocyte, rat PMN, A23187 stimulated; for inhibition at 50 µM: read-out: >50% Inhibitory at 50 μm (5-HETE synthesis)
Method: The assay of this Example measures the ability of the compounds of the invention to inhibit the synthesis of 5-HETE by rat glycogen-elicited polymorphonuclear leukocytes.
as §6
The compounds of this invention are tested in this assay at a level of 50 μm, unless otherwise noted. The results are summarized in Table 1, where those compounds having an inhibition of >50% are designated by a "+". Some results are express as an IC50 value.

[6] = test system: ovalbumin induced bronchospasm; assay: Inhibition of ovalbumin-induced bronchospasm mediated by endogenous mediators in sensitized guinea pigs; assay type: in vivo, guinea pig (male Hartley); conditions: 50 mg/kg intraduodenal, 10 minutes before intravenous ovalbumin challenge
Method: The assay of this Example measures the in vivo ability of the compounds of the invention to inhibit the bronchospasm induced in guinea pigs by endogenous mediators of the bronchoconstriction.
Male Hartley strain guinea pigs weighing 250-350 g are sensitized to chicken ovalbumin (OA) (10 mg i.p.) on days 1 and 3 and used starting on day 26. The animals are anesthetized with pentobarbital sodium (50 mg/kg, i.p.), bilateral vagotomy is performed, and the jugular vein is cannulated for injection of drugs and the carotid artery for monitoring blood pressure. The trachea is cannulated for artificial ventilation by a miniature Starling pump and for indirect measurement of respiratory volume changes as described, infra. Succinylcholine (2 mg/kg, i.v.) is administered to arrest spontaneous respiration. […]
Respiratory volume changes are determined by a calibrated piston whose travel is recorded, via a linear transducer, on a Beckman Dynograph recorder. Maximal bronchoconstrictor volume is determined by clamping off the trachea at the end of the experiment. Overflow volumes at minutes 1, 3 and 5 are obtained from the recorded charts.
Area under the volume overflow curve (AUC) is estimated, using the overflow values at 1, 3 and 5 minutes, and expressed as a percentage of the maximal overflow AUC (equation 1): [formula] […]

In the case of Clc1cccc(OCc2ccc3ccccc3n2)c1 [Example 3, 2-[(3-Chlorophenoxy)methyl]quinoline], the “TOPICAL ED50, AA” value [1] is reported as 0.3 mg/ear, the “% Change from Control, TOPICAL, AA” value [1] is reported as -67% and the IC50 [2] is reported as greater than 100 µM. The “% Change from Control, TOPICAL, TPA” value [3] was -60%, the inhibition at 50 µM [4] was greater than 50% and the IC50 [4] was 7.2 µM. For the same compound, the inhibition at 50 µM [5] was greater than 50% and the IC50 [5] was 1.5 µM.
In the case of Brc1ccc(SCc2nc3ccccc3s2)cc1 [Example 13], the inhibition at 50 µM [4] is reported as greater than 50% and the inhibition at 50 µM [5] is reported as greater than 50%.
Work on Brc1c(OCc2ccc3ccccc3n2)ccc2ccccc12 [Example 11, 2-[(1-Bromo-2-naphthalenyloxy)methyl]quinoline] yielded an inhibition at 50 µM [4] greater than 50% and an inhibition at 50 µM [5] greater than 50%.
With Brc1cccc(SCc2nc3ccccc3s2)c1 [Example 14] the inhibition at 50 µM [4] was greater than 50% and the inhibition at 50 µM [5] was greater than 50%.
With Clc1ccc(OCc2ccc3ccccc3n2)cc1 [Example 4, 2-[(4-Chlorophenoxy)methyl]quinoline] the “TOPICAL ED50, AA” value [1] was 1.3 mg/ear, the “% Change from Control, TOPICAL, AA” value [1] was -43% and the “% Change from Control, TOPICAL, TPA” value [3] was -45%. The inhibition at 50 µM [4] was greater than 50% and the inhibition at 50 µM [5] was greater than 50%.
For Brc1ccccc1OCc1ccc2ccccc2n1 [Example 8, 2-[(2-Bromophenoxy)methyl]quinoline], the “% Change from Control, TOPICAL, AA” value [1] was -32%, the “% Change from Control, TOPICAL, TPA” value [3] was -14% and the inhibition at 50 µM [4] was greater than 50%. For the same compound, the inhibition at 50 µM [5] was greater than 50%.
In the case of FC(F)(F)c1cccc(OCc2ccc3ccccc3n2)c1 [Example 16, 2-[[3-(trifluoromethyl)phenoxy]methyl]quinoline], the “% Change from Control, TOPICAL, AA” value [1] is reported as 35%, the “% Change from Control, TOPICAL, TPA” value [3] is reported as 22% and the inhibition at 50 µM [5] is reported as greater than 50%.
Brc1cccc(OCc2ccc3ccccc3n2)c1 [Example 1, 2-[(3-Bromophenoxy)methyl]quinoline] was tested, and the “TOPICAL ED50, AA” value [1] was 2.0 mg/ear, the “% Change from Control, TOPICAL, AA” value [1] was -43% and the “TOPICAL ED50, TPA” value [3] was 0.7 mg/ear. The “% Change from Control, TOPICAL, TPA” value [3] was -62%, the inhibition at 50 µM [4] was greater than 50% and the “% Inhibition of MAX AUC” value [6] was greater than 50%. For the same compound, the inhibition at 50 µM [5] was greater than 50%.
Brc1ccc(OCc2ccc3ccccc3n2)cc1 [Example 6, 2-[(4-Bromophenoxy)methyl]quinoline] was tested, and the “% Change from Control, TOPICAL, AA” value [1] was -36%, the “% Change from Control, TOPICAL, TPA” value [3] was -22% and the inhibition at 50 µM [4] was greater than 50%. The inhibition at 50 µM [5] was greater than 50%.
For c1ccc2nc(COc3cccc4ccccc34)ccc2c1 [Example 10, 2-[(1-Naphthalenyloxy)methyl]quinoline], the “TOPICAL ED50, AA” value [1] was 0.3 mg/ear, the IC50 [2] was greater than 100 µM and the “TOPICAL ED50, TPA” value [3] was 0.7 mg/ear. The inhibition at 50 µM [4] was greater than 50%, the IC50 [4] was 6.3 µM and the inhibition at 50 µM [5] was greater than 50%. For the same compound, the IC50 [5] was 0.4 µM.
For Clc1ccc(OCc2ccc3ccccc3n2)cc1Cl [Example 7, 2-[(3,4-Dichlorophenoxy)methyl]quinoline], the “% Change from Control, TOPICAL, AA” value [1] was -54%, the “% Change from Control, TOPICAL, TPA” value [3] was -21% and the inhibition at 50 µM [4] was greater than 50%. For the same compound, the inhibition at 50 µM [5] was greater than 50%.
Fc1cccc(OCc2ccc3ccccc3n2)c1 [Example 5, 2-[(3-Fluorophenoxy)methyl]quinoline] was tested, and the “TOPICAL ED50, AA” value [1] was 0.3 mg/ear, the “% Change from Control, TOPICAL, AA” value [1] was -63% and the IC50 [2] was greater than 100 µM. The “TOPICAL ED50, TPA” value [3] was 1.6 mg/ear, the “% Change from Control, TOPICAL, TPA” value [3] was -47% and the inhibition at 50 µM [4] was greater than 50%. The IC50 [4] was 3.2 µM, the inhibition at 50 µM [5] was greater than 50% and the IC50 [5] was 9.9 µM.
c1ccc2nc(COc3cccc4cccnc34)ccc2c1 [Example 15, 2-[(8-quinolinyloxy)-methyl]quinoline] was tested, and the “% Change from Control, TOPICAL, AA” value [1] was 52%, the “% Change from Control, TOPICAL, TPA” value [3] was 53% and the inhibition at 50 µM [5] was greater than 50%.
Fc1ccccc1OCc1ccc2ccccc2n1 [Example 2, 2-[(2-Fluorophenoxy)methyl]quinoline] was tested, and the “% Change from Control, TOPICAL, AA” value [1] was -40%, the “% Change from Control, TOPICAL, TPA” value [3] was -42% and the inhibition at 50 µM [4] was greater than 50%. It also gave an inhibition at 50 µM [5] greater than 50%.
c1ccc2cc(OCc3ccc4ccccc4n3)ccc2c1 [Example 9, 2-[(2-Naphthalenyloxy)methyl]quinoline] showed an inhibition at 50 µM [4] greater than 50% and an inhibition at 50 µM [5] greater than 50%.
